Reference: patent US20240307426A1, “USE OF SGLT-2 INHIBITORS FOR THE PREVENTION AND/OR TREATMENT OF RENAL DISEASES IN NON-HUMAN MAMMALS” (BOEHRINGER INGELHEIM VETMEDICA GMBH, priority 2021, published 2024)

Key:
[1] = tested on: client owned cats with CKD (IRIS stage 3); assay: Exploratory clinical field study - cats (Example 1); type: in vivo, cat; details: CKD IRIS stage 3, 0.1 mg/kg bodyweight orally once daily
Description: (§1) Client owned patients diagnosed with CKD (IRIS stage 3) diagnosed via physical examination and biomarker levels are orally treated once daily with velagliflozin 0.1 mg/kg bodyweight. During the study period the body weight, body condition score, biomarker levels (creatinine and SDMA), presence of concomitant conditions and need for further medication are examined on regular basis during the visits at the site by the investigator. The parameters examined are creatinine and SDMA levels, proteinuria, blood pressure, quality of life, and hydration status. Additionally, variables as the delayed onset of renal failure, survival time of the cat patients, IRiS stage progression and renal related mortality and/or morbidity are observed.

[2] = tested on: client owned dogs with CKD; assay: Exploratory clinical field trial in client owned dogs with CKD (Example 4); type: in vivo, dog; details: 0.05 mg/kg bodyweight orally once daily
Description: as §1, with “CKD” for “CKD (IRIS stage 3)”, “velagliflozin 0.05” for “velagliflozin 0.1”, “SDMA), proteinuria,” for “SDMA),”, “blood pressure” for “blood pressure, quality of life,”, “the dog” for “the cat”, “patients, IRIS” for “patients, IRiS”

[3] = tested on: client owned dogs with CKD (IRIS stage 3); assay: Exploratory clinical field study - dogs (Example 2); type: in vivo, dog; details: CKD IRIS stage 3, 0.3 mg/kg bodyweight orally once daily
Description: as §1, with “velagliflozin 0.3” for “velagliflozin 0.1”, “SDMA), proteinuria,” for “SDMA),”, “blood pressure” for “blood pressure, quality of life,”, “the dog” for “the cat”

N#Cc1ccc([C@@H]2O[C@H](CO)[C@@H](O)[C@H](O)[C@H]2O)cc1Cc1ccc(C2CC2)cc1 [velagliflozin, Velagliflozin]
effect on renal function [1]: beneficial effect on renal function | progression of the disease [1]: delay in progression of the disease | effect on renal function [2]: beneficial effect on renal function | progression of the disease [2]: delay in progression of the disease | effect on renal function [3]: beneficial effect on renal function | progression of the disease [3]: delay in progression of the disease
